Data as given in US10385107B2 (INDIANA UNIVERSITY RESEARCH AND TECHNOLOGY CORPORATION, priority 2014, dated 2019).
Entries after “also recorded” stand apart in the source; their conditions may differ. Blank lines part the entries; values can stand above or below the substance they belong to.

Legend:
blood glucose [1] = experiment: Insulin tolerance test in C57/Blk mice (MIU-30); assay type: in vivo; details: C57 black mice, through 8 hr
Excerpt: (generating “MIU-30c”). […] In FIG. 1B total blood glucose of MIU 30a and MIU 30c as compared to vehicle is reported as differential area under curve (AUC). […] These in vivo results are consistent with the in vitro analysis.

insulin receptor [2] = molecular target: T1, insulin receptor (Homo sapiens, UniProt P06213); experiment: Insulin receptor phosphorylation assay, receptor transfected HEK293 cells; assay type: cell-based; set-up: expressed in transfected cells; host or cells: HEK293; details: incubated in 20% plasma
insulin receptor [3] = molecular target: T1, insulin receptor; experiment: Insulin receptor competition binding assay (scintillation proximity); set-up: expressed in transfected cells; plasma membrane fragments; details: incubated in 20% plasma/PBS at 37° C.
[4] = Stability of Phe^B1-Insulin Prodrug
blood glucose [5] = experiment: Comparative insulin tolerance for insulin prodrug analogs in mice; assay type: in vivo; details: for comparative insulin potency in vivo: mice, administered without pre-incubation
Excerpt: The prodrug derivative MIU-29: [B^1(Y16,L17,Y25)29a: A^1(aF19-dLys(Ac),NLeu)] comprises a 4-amino-phenylalnine substitution at position A19 wherein a dipeptide dLys(Ac),NLeu have been covalently linked at the 4-amino position of the A19 residue. […]
(§1) Acylation of the insulin prodrug analogs was investigated to determine if retention times in vivo could be enhanced. […] (providing time for prodrug conversion) relative to the non-acylated prodrug (see FIG. 2).

[6] = In vitro activity of prodrugs relative to time incubated ex vivo; details: 30% ACN/PBS, pH 7.4, 37° C.
Experimental: FIG. 2 is a graph depicting the in vitro activity of the acylated prodrug MIU 42: B^1(Y16,L17,Y25)29a: A^1(dLys(rE-C14),Sar-aF19) (wherein an amino acid of the dipeptide prodrug element is acylated, linked at the gamma position “rE” of a glutamic acid linker) relative to time incubated ex vivo in 30% ACN/PBS at pH 7.4 and 37° C.
as §1

T1 sequence (P06213 28-758 limits assumed): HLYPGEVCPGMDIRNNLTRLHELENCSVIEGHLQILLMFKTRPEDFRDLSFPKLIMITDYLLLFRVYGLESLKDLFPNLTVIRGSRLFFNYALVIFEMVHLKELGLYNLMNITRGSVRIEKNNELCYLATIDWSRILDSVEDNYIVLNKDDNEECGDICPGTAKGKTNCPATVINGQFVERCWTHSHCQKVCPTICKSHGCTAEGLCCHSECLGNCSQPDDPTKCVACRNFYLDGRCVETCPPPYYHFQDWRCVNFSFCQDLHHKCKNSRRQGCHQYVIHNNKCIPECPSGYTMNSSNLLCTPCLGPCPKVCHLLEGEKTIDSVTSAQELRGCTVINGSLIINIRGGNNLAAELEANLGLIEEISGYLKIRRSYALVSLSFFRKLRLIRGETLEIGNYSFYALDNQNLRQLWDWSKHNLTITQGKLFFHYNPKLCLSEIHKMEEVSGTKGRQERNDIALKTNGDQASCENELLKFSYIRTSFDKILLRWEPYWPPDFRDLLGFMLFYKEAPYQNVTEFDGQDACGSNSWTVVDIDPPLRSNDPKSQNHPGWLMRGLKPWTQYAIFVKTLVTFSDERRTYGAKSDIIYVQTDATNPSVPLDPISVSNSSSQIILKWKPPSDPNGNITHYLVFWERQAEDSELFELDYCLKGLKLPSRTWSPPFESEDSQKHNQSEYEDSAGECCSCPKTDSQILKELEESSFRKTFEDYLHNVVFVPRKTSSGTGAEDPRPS
T1 sequence (P06213 763-1382 partner limits assumed): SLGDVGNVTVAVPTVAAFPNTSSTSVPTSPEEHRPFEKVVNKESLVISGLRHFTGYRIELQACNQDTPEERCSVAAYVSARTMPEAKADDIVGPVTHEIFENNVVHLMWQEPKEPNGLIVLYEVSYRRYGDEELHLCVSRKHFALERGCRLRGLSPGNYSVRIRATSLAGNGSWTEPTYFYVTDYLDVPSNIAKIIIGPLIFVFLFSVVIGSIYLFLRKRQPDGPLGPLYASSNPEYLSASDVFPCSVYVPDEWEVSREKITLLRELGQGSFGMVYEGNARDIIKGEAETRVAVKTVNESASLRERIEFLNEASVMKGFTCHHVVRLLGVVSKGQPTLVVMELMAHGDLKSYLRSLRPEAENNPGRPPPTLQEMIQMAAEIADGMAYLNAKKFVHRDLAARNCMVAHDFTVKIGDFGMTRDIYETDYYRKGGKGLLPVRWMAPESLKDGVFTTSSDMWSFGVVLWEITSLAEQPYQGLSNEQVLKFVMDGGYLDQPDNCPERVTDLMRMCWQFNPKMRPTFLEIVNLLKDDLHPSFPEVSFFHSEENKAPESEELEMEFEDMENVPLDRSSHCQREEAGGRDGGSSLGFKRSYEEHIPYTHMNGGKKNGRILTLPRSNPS

% Activity of Insulin (phosphorylation) (insulin receptor [2]; 1 hr): 23.0% | % Activity of Insulin (phosphorylation) (insulin receptor [2]; 3 hr): 26.8% | % Activity of Insulin (phosphorylation) (insulin receptor [2]; 6 hr): 32.5% | % Activity of Insulin (phosphorylation) (insulin receptor [2]; 9 hr): 41.1% | % Activity of Insulin (phosphorylation) (insulin receptor [2]; […]): 43.2% | % Activity of Insulin (binding) (insulin receptor [3]; 0 hr): 34.44% | % Activity of Insulin (binding) (insulin receptor [3]; 9 hr): 100.09% | % Activity of Insulin (binding) (insulin receptor [3]; 95 hr): 115.42%
Substance: B^1(Y16,L17,Y25)29a: A^1(dLys(Ac),Sar-aF19) [MIU30]
blood glucose AUC vs vehicle (glucose lowering) (blood glucose [1]; 90 nmol/kg): little change in glucose | blood glucose AUC vs vehicle (glucose lowering) (blood glucose [1]; 270 nmol/kg): glucose lowering

Cleavage time [4]: > 240 h
Substance: Methyl dLys(C18) [Peptide 8]

Substance: [B^1(H5,10 Y16,L17,Y25, K29-C14)28a: A^1(N18,21, aF19NH2)] [MIU-46]
comparative insulin potency in vivo (blood glucose [5]): did not exhibit a desired in vivo potency or a basal profile

Substance: [B^1(Y16,L17,Y25)29a: A^1(aF19-dLys(Ac),NLeu)] [MIU-29]
ability to lower blood glucose compared to parent compound (blood glucose [5]; normal mice, prodrug incubated 24 hours ex vivo before administration): performed almost identically

Substance: [B^1(Y16,L17,Y25)29a: A^1(dLys(rE-C14),Sar-aF19)] [MIU 42]
comparative insulin potency in vivo (blood glucose [5]): not very potent relative to the non-prodrug parent compound | in vitro activity relative to time incubated ex vivo [6]: increases with time incubated ex vivo; also recorded: activity is restored

Cleavage time [4]: ~150 h
Substance: isobutyl dLys(C18) [Peptide 10]
